Consider eight compounds from ChEMBL document CHEMBL3991601, “The target landscape of clinical kinase drugs” (Science, 2017).

Each structure is given as a SMILES string. Active and inactive are the calls of the source.

In test [1] the target is Hepatocyte growth factor receptor (Homo sapiens, UniProt P08581).
The target of test [2] is Serine/threonine-protein kinase ATR (Homo sapiens, UniProt Q13535).
For test [3], the target named is T1, Cyclin-dependent kinase-like 5 (Homo sapiens, UniProt O76039).
T1 sequence (O76039 whole entry): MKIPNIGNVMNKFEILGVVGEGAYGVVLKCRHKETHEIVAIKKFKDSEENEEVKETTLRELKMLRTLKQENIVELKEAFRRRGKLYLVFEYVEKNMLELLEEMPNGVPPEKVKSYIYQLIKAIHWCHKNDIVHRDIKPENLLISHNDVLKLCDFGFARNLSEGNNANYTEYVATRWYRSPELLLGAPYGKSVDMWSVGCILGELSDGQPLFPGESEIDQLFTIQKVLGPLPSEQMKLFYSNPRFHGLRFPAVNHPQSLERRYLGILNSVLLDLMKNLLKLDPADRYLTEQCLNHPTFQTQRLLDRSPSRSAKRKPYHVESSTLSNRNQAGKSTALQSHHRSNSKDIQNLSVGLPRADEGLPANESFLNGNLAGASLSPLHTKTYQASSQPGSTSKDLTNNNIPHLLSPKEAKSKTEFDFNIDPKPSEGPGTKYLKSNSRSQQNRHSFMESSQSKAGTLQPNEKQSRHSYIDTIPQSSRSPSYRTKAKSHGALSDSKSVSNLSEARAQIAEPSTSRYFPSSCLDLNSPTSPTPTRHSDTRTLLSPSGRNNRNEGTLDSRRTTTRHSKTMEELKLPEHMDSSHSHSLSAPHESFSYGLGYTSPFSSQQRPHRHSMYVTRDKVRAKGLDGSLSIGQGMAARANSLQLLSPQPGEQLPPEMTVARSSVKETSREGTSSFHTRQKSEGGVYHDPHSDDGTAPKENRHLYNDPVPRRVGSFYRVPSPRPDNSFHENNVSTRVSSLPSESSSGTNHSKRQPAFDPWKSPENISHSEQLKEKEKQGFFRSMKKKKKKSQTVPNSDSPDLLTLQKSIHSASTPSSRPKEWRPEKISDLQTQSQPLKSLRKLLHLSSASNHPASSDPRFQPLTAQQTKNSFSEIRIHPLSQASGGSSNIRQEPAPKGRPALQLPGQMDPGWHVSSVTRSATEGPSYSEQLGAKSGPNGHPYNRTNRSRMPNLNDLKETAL

In test [4] the target is T2, ATP-dependent RNA helicase DHX30 (Homo sapiens, UniProt Q7L2E3).
T2 sequence (Q7L2E3 whole entry): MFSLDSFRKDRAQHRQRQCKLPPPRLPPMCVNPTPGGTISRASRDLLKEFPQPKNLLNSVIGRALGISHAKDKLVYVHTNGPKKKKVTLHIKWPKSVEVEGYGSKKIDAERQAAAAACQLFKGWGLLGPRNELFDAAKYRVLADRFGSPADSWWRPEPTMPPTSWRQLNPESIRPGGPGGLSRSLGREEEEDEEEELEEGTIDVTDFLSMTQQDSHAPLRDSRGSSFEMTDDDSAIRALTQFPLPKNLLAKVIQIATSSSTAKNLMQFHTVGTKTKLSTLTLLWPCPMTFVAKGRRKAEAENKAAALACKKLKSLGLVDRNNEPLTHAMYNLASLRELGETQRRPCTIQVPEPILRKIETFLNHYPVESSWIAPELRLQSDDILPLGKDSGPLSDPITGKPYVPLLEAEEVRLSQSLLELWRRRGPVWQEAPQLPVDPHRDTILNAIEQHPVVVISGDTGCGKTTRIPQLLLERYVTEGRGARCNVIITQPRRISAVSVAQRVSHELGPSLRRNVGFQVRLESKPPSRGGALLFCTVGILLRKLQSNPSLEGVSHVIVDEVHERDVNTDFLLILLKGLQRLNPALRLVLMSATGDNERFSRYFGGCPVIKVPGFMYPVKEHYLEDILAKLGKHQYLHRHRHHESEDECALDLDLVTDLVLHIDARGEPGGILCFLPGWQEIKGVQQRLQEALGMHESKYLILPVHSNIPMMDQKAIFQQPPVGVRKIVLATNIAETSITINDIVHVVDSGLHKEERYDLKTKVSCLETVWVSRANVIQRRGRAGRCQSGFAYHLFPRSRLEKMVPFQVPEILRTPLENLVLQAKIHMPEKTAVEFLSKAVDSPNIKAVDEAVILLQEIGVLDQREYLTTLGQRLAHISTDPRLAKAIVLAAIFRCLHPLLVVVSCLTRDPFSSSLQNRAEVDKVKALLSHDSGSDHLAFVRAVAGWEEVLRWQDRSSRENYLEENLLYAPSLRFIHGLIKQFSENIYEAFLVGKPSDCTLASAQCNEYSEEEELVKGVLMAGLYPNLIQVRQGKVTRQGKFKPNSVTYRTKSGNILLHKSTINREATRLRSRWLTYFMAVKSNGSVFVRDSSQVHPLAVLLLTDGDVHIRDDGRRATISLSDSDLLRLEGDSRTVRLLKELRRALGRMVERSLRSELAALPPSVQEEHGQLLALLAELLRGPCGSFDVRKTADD

The target in test [5] is Dual specificity testis-specific protein kinase 1 (Homo sapiens, UniProt Q15569).
For test [6], the target named is High affinity nerve growth factor receptor (Homo sapiens, UniProt P04629).
Chain of High affinity nerve growth factor receptor (P04629 whole entry): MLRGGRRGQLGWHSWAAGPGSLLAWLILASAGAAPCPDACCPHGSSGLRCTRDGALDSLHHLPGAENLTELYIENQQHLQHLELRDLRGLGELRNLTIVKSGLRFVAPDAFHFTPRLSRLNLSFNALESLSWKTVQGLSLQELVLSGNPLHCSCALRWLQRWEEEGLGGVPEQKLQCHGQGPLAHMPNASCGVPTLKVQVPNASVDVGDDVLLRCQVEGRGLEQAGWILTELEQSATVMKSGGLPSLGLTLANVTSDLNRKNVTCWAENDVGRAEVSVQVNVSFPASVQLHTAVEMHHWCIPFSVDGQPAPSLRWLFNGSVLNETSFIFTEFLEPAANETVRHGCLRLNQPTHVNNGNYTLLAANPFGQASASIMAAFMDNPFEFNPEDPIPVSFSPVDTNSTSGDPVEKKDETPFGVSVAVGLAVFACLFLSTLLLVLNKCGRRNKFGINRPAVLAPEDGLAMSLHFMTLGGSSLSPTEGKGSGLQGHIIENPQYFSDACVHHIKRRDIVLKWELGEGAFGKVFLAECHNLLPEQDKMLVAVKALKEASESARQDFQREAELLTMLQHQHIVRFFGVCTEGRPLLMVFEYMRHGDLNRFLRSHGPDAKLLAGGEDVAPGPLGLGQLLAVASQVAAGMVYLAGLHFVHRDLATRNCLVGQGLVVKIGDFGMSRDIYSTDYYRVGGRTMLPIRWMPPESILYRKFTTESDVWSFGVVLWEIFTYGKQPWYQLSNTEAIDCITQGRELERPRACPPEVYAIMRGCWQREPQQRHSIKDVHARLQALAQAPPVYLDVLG
Also: in the data inactive means no Kd found up to 30 µM.

Chain of Hepatocyte growth factor receptor (P08581 whole entry): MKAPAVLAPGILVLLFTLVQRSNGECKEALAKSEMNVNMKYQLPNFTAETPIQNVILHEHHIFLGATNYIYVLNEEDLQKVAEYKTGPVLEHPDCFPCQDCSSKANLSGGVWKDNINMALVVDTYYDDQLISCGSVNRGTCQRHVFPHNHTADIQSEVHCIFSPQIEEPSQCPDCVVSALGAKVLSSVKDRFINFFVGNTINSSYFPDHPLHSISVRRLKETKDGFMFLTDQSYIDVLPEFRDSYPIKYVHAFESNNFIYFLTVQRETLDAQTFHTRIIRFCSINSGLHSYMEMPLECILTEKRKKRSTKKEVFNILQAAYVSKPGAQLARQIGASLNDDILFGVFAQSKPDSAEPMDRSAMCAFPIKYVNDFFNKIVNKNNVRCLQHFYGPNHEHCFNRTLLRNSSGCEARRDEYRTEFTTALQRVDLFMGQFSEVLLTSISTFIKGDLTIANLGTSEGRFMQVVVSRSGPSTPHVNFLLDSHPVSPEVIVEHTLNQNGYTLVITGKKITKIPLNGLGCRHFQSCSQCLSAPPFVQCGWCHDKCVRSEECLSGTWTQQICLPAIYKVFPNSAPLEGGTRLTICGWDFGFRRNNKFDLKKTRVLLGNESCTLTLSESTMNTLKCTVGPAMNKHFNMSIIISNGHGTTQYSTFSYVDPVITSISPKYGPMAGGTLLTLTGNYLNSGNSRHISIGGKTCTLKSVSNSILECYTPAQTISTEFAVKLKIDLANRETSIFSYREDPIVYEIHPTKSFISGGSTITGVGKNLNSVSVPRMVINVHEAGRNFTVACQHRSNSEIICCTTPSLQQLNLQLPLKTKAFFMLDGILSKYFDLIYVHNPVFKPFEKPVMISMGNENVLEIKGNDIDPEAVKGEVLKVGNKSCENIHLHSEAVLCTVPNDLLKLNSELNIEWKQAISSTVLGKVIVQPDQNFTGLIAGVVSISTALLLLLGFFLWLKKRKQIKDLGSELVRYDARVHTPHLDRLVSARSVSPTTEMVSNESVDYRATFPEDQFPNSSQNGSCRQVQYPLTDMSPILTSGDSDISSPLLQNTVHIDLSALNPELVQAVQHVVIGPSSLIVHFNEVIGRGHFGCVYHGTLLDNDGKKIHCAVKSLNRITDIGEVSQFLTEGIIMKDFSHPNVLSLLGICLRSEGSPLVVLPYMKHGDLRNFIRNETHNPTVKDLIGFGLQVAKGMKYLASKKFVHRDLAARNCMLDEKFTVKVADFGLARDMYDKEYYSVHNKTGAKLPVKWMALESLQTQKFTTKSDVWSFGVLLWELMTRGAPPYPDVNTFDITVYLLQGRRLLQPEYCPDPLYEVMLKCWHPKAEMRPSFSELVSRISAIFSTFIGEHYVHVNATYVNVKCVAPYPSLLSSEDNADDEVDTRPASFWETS
Chain of Serine/threonine-protein kinase ATR (Q13535 whole entry): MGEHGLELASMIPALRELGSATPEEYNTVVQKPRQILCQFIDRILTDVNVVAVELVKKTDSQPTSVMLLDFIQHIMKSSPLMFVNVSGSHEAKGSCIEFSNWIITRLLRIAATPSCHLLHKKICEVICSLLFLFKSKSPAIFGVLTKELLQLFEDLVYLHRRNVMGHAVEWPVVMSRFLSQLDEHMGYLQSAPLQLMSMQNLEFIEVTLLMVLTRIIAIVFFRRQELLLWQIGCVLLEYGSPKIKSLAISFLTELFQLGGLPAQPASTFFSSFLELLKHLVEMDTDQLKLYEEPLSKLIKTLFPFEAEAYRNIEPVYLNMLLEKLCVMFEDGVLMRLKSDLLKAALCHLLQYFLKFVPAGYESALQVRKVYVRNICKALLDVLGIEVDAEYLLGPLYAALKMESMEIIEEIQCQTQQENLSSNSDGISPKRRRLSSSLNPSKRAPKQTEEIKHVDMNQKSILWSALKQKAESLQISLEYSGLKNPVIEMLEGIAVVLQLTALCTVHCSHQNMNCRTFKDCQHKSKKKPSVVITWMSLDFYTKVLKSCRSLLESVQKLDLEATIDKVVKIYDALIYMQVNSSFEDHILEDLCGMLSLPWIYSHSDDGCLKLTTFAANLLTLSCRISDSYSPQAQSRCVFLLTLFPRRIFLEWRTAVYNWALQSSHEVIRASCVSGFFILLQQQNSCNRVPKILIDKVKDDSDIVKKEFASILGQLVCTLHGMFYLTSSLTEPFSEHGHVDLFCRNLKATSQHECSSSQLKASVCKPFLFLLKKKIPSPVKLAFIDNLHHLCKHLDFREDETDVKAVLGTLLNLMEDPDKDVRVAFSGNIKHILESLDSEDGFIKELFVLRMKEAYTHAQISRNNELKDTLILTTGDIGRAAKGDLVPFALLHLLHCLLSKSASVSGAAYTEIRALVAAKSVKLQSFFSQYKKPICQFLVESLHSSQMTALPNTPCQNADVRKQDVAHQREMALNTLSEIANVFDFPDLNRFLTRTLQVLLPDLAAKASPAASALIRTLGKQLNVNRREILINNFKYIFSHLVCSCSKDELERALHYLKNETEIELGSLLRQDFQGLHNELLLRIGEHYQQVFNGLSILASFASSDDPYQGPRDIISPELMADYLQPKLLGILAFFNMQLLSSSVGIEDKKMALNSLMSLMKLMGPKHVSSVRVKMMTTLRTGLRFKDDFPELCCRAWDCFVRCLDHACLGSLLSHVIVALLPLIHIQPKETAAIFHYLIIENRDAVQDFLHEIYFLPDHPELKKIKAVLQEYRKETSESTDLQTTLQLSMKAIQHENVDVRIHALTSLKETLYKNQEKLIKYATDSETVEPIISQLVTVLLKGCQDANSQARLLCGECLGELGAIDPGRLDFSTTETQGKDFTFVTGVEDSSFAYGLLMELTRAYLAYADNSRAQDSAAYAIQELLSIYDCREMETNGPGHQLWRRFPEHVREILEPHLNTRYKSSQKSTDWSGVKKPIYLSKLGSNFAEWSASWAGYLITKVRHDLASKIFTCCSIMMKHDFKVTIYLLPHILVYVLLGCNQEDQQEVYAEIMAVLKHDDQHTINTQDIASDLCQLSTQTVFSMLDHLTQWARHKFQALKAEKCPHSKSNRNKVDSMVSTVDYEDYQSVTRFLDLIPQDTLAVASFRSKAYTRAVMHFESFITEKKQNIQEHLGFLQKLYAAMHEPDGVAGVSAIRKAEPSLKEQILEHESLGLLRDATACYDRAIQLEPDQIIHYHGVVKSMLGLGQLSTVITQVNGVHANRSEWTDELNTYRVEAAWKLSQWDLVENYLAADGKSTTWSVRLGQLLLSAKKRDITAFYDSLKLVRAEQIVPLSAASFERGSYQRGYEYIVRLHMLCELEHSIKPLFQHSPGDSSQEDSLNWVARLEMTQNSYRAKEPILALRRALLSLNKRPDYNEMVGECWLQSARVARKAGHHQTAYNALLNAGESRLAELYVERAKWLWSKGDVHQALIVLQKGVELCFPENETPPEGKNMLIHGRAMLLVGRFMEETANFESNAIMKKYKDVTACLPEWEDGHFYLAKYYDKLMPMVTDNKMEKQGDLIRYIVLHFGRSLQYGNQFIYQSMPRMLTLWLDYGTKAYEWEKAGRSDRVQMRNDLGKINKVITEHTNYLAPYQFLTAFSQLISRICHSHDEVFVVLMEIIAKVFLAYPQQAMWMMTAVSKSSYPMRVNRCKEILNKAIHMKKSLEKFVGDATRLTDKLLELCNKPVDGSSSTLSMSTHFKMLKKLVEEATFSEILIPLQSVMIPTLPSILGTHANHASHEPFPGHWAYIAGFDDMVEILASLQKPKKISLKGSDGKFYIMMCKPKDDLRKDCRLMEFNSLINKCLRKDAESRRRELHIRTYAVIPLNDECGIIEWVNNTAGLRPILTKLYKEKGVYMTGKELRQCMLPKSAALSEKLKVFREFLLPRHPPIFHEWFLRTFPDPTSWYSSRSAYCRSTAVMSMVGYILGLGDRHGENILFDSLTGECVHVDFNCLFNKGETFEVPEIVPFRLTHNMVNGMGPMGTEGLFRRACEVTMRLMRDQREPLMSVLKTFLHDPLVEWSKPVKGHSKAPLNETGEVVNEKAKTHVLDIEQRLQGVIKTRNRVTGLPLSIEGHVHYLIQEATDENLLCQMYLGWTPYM

On to `O=C(c1ccc(F)c(F)c1Nc1ccc(I)cc1F)N1CC(O)([C@@H]2CCCCN2)C1` [COBIMETINIB], for which the Kd in test [1], in test [2], in test [3], in test [4], in test [5] and in test [6] was > 30 µM (inactive) each time.
As for `Cn1cc(-c2ccc3nnc(C(F)(F)c4ccc5ncccc5c4)n3n2)cn1` [JNJ-38877605], the Kd was 0.002 µM (active) in test [1]; > 30 µM (inactive) in test [2]; > 30 µM (inactive) in test [3]; > 30 µM (inactive) in test [4]; > 30 µM (inactive) in test [5]; > 30 µM (inactive) in test [6].
Take `COc1cc(CCc2cc(NC(=O)c3ccc(N4C[C@@H](C)N[C@@H](C)C4)cc3)n[nH]2)cc(OC)c1` [AZD-4547]: the Kd in test [1] was > 30 µM (inactive); in test [2] it was > 30 µM (inactive); in test [3] it was > 30 µM (inactive); in test [4] it was > 30 µM (inactive); in test [5], > 30 µM (inactive); in test [6], 2.25 µM.
As for `C[C@@H]1CN(Cc2ccc(F)cc2)[C@@H](C)CN1C(=O)c1cc2c(C(=O)C(=O)N(C)C)cn(C)c2cc1Cl` [TALMAPIMOD], the Kd in test [1], in test [2], in test [3], in test [4], in test [5] and in test [6] was > 30 µM (inactive) in each case.
`O=C(Nc1ccc(-c2ccnc(Nc3ccc(N4CCOCC4)cc3)n2)cc1)C1CCCN1` (stereo not drawn) [XL-019]: the Kd in test [1], in test [2], in test [3], in test [4], in test [5] and in test [6] was > 30 µM (inactive) each time.
Turning to `Cc1cc(-c2cc(O)ccc2Cl)cc2nnc(Nc3ccc(OCCN4CCCC4)cc3)nc12`, the Kd in test [1], in test [2], in test [3], in test [4], in test [5] and in test [6] was > 30 µM (inactive) in each case.
With `O=C1NC(=O)/C(=C/c2ccc3nccc(-c4ccncc4)c3c2)S1` [GSK-1059615], the Kd in test [1], in test [2], in test [3], in test [4], in test [5] and in test [6] was > 30 µM (inactive) throughout.
For `CN(C)C(=O)c1cc2cnc(Nc3ccc(N4CCNCC4)cn3)nc2n1C1CCCC1` [RIBOCICLIB], the Kd in test [1], in test [2], in test [3], in test [4], in test [5] and in test [6] was > 30 µM (inactive) each time.
